Laboratory results: patent US5334595A, “Pyrazoloquinolones as anticancer agents” (priority 1992, dated 1994)
Like-named read-outs stand apart in the source and are kept apart here.

Tests used:
[1] = In vivo antitumor assay, Panc03(sc); set-up: species or system mice; conditions: mouse, in vivo
Excerpt: Mice: Inbred: C3H/He and NCR-nu; and Hybrids: B6D2F1 (C57BL/6 females×DBA/2 males, CD2F1 (Balb/c females×DBS/2 males) and B6C3fl (C57BL/6×C3H) were bred at Wayne State University from strains obtained from the Frederick Cancer Research Facility, Frederick, Maryland or purchased from commercial suppliers.
Tumors: Murine Tumor: P388 and an adriamycin-resistant (ADR) subline P388/ADR leukemia and the following transplantable solid tumors of mice were used for in vivo testing: B16 melanoma (B16), pancreatic ductal adenocarcinoma No. 03 (Pane 03), colon adenocarcinoma No. 38 (colo 38), lung carcinoma No. 12 (LC 12), mammary ductal adenocarcinoma No. 16/C (Mam16C) and an adriamycin-resistant subline Mam16C/ADR. Human tumor: A single human tumor, mammary carcinoma MX-1 was used for in vivo testing. All tumors are in the Developmental Therapeutics Program frozen tumor respository, maintained by the Biological Testing Branch, Frederick Maryland. Each has a detailed description, code identification number, and list of references at the National Tumor Repository. Murine tumors were maintained in the mouse strain of origin and were transplanted in the appropriate F1 hydrid (or the strain of origin) for therapy trials. Human mammary carcinoma MX-1 (MX1) was maintained as a subcutaneous implant in either athymic Swiss (Cr: NIH(S)-nu) or athymic random bred (NCR-nu) mice and transplanted in NCR-nu for therapy trials.
Chemotherapy: For pancreatic ductal adenocarcinoma No. 3, colon adenocarcinoma No. 38 (colo 38), lung carcinoma No. 12 LC 12) and both adriamycin-sensitive (RP) and-resistant (ADR) mammary ductal adenocarcinoma No. 16 (Mam16) tumors, bilateral tumor implants were used to help ensure a more uniform tumor burden per mouse (thus reducing the requirement for greater numbers of mice per group). The animals necessary to begin an experiment were pooled, implanted bilaterally s.c. on day zero with 30-60 mg tumor fragments using a 12-gauge trocar, and again pooled before randomization to the various treatment and control groups. Chemotherapy was started within three days after tumor implantation while the number of cells per mouse was relatively small (1×10^7 -1×10^8 cells).
Quantitative end points used to assess antitumor activity included % Increased Life Span (% ILS), Tumor Cell Kill (Log10 kill), and Tumor Growth Inhibition (T/C). Long Term Survivors (45 or 60 day) were excluded from calculations of %ILS and Tumor Cell Kill.
The log10 cell kill was calculated from the following formula: [formula] where T-C is the tumor difference in the median day of death between the treated (T) and the control (C) groups and Td is the tumor doubling time (in days), the latter estimated from the best fit straight line from a log-linear growth plot of the control-group tumors in exponential growth. The conversion of the T-C values to log10 cell kill is possible because the Td for tumors regrowing post-treatment approximated the Td values of the tumors in untreated control mice.
Tumors were measured with a caliper once or twice weekly (as needed) until either tumors exceeded 1600 mg or cure was assured. Tumor weights were estimated from two-dimensional measurements: Tumor Weight (mg)=(a×b^2) / 2, where a and b are the tumor length and width (ram) respectively. Measurements were carried out simultaneously in both treatment and control groups. When the control group tumors reached approximately 750-1500 mg in size (median of group), the median tumor weight of each group was determined (including zeros). The T/C value in percent is an indication of antitumor effectiveness. The % T/C was calculated from the following formula for solid murine tumor models: [formula] where T and C are median tumor weights of the treatment and control groups, respectively. A T/C equal to or less than 42% is considered significant antitumor activity. […]

[2] = target: T1, human topoisomerase II (Homo sapiens, UniProt P11388); experiment: Mammalian topoisomerase II inhibition assay (topo II covalently attached to DNA, relative to mAMSA); format: biochemical; conditions: read-out: topo II inh. EC50
T1 construct: Topo II was purified from late log phase suspension cultures of HeLa WIS; endogenous in cells; host or cells: HeLa WIS
Excerpt: The inhibition of human topoisomerase II (hereafter topo II) was quantitated by a procedure adapted from that described by Trask et al., EMBO J., 3, 671-676 (1984). The assay quantitates the amount of topo II covalently attached to DNA at equilibrium during a topo II reaction. This assay determines the potential of a compound to stabilize this complex, which potential is closely related to the cytotoxicity of the compound.
Topo II was purified from late log phase suspension cultures of HeLa WIS by an adaptation of the method described by Per et al., Mol. Pharmacol., 32, 17-25 (1987).
Assays (in duplicate) were assembled at 4° C. Assay mix (25 μl) was distributed in Beckman (No. 265270) 1.5 mL microtiter tubes followed by the addition of 5 μl test compound to yield the final concentrations of assay components:
The assay mix including the test compound was incubated for 20 minutes at 37° C. The reaction was terminated at 37° C. by the addition of 3 μl 10% SDS followed by the addition of 266 μl 10 mM Tris-Cl pH 7.5, 20 μg/ml BSA, 20 μg/ml calf thymus DNA, 1% SDS.
A SDS/protein precipitate was formed by the addition of 28 μl 2.5M KCl followed by chilling on ice for a minimum of 10 minutes. The precipitate was collected and washed with a Brandell cell harvester on a GFB glass fiber filter membrane as follows. The contents of the assay tube were drawn up into the harvester. The tube was then rinsed 7× with 10 mM Tris-Cl pH 7.5, 1 mM EDTA and 100 mM KCl. The precipitate was washed with 1 L of a solution of 10 mM Tris-Cl pH 7.5, 1 mMEDTA, 100 mM KCl followed by 1 L of 95% ethyl alcohol and finally 0.5 L 70% of ethyl alcohol (per 48 samples in each case). After drying, CPM was determined by liquid scintillation counting with 5 ml Biofluor (NEN Research Products) or Readisafe (Beckman Instruments Inc.) cocktail.
Preparation of test compound--A stock solution (6 mg/ml) of test compound was prepared either in 0.1N sodium hydroxide or 0.2N hydrogen chloride. This solution then was diluted 1/5 into water and serially thereafter in either 0.02N sodium hydroxide or 0.04N hydrogen chloride, respectively. The stock solution and serial dilution of the test compound was stored at -20° C. prior to testing.
Screening of test compound--As an initial screen, the test compound was tested at a final concentration of 2, 20 and 200 μg/ml. The compound was then retested at a range of concentrations (usually 2-3×steps) bridging their approximate EC50 's, as estimated by the prescreen.
Controls--A solvent control which indicates the base level of topo II-DNA complex formed in the absence of the test compound was included in each test. A control, in which topo II was omitted, was included for each test compound at the highest drug concentration tested.
Reference Agent--A dose response curve with mAMSA at 0.01, 0.08, 0.16, 0.32, 1.0 and 10 μg/ml was included in each test.
The maximal DNA-topo II complex formed is taken as that equal to that formed at the nearly saturating dose of mAMSA (10 μg/ml).

[3] = footnote c: bell-shaped dose response curve noted, 50% of maximal effect of mAMSA
[4] = conc. achieving 50% of maximal effect of mAMSA, topo II from HeLa cells

T1 sequence (P11388 whole entry): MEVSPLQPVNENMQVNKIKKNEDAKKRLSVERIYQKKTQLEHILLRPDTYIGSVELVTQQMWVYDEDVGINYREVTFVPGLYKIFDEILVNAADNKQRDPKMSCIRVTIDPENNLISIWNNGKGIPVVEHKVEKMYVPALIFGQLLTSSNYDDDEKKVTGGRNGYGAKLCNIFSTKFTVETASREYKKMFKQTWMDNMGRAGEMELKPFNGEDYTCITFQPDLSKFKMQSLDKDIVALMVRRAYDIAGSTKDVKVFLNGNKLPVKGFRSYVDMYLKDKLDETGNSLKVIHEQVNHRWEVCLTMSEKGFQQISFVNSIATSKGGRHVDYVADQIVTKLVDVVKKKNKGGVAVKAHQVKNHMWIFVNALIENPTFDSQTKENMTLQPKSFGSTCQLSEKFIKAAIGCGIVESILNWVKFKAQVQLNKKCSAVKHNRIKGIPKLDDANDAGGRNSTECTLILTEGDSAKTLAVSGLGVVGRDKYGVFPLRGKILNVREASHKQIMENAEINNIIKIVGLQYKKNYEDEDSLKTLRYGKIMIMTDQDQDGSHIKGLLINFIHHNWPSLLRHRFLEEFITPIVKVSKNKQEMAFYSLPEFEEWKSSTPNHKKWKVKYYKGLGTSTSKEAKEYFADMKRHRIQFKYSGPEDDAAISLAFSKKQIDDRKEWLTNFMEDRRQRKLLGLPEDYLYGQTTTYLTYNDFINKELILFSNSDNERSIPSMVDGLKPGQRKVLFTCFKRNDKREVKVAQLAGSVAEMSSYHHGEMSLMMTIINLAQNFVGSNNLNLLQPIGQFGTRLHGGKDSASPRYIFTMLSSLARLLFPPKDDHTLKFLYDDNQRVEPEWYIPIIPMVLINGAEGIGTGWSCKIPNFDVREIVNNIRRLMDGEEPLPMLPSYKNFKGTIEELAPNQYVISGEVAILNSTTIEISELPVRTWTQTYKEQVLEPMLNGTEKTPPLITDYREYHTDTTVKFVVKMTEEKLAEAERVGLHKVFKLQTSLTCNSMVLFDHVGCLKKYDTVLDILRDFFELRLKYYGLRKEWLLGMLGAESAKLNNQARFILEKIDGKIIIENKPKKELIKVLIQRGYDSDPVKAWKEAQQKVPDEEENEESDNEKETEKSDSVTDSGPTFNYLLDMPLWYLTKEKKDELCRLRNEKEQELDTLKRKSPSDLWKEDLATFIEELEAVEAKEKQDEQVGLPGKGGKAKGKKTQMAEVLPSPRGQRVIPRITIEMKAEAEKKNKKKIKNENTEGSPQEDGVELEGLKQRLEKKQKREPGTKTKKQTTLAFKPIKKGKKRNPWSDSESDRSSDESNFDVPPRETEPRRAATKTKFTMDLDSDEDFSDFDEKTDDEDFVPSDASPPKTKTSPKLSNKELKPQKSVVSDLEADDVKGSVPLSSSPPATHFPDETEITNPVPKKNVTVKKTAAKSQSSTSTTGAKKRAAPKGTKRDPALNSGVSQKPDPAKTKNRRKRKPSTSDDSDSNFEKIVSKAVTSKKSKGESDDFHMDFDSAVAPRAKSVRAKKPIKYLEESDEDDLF

| SMILES | EC50 [2, 3] [nM] | MTD ([1]; iv, MTD) [mg/kg] | EC50 [2, 4] [nM] | MTD ([1]; MTD) [mg/kg] | other results |
| --- | --- | --- | --- | --- | --- |
| Cc1cc(-c2c(F)cc3c4nn(CCN(C)C)c(=O)c-4cn(C4CC4)c3c2F)cc(C)n1.O=C(O)/C=C/C(=O)O [Example 1, 5-Cyclopropyl-6,8-difluoro-2,5-dihydro-2-[2-(dimethylamino)-ethyl]-7-(2,6-dimethyl-4-pyridinyl)-3H-pyrazolo[4,3-c]quinolin-3-one (E)-2-butendioate (1:1)] | 2600 | – | – | – | MTD ([1]; iv, Panc03(sc), drug iv, qd 3,4, exp 1005A, read-out: MTD): 52 mg/kg; MTD ([1]; iv, Panc03(sc), drug iv, qd 3,6,9, exp 1146, read-out: MTD): 34 mg/kg; MTD ([1]; iv, Panc03(sc), drug iv, qd 3, exp 895A, read-out: MTD): 35 mg/kg; MTD ([1]; iv, Panc03(sc), drug iv, qd 3-9, exp 910, read-out: MTD): 45 mg/kg |
| Cc1cc(-c2c(F)cc3c4nn(CCCN(C)C)c(=O)c-4cn(C4CC4)c3c2F)cc(C)n1 [Example 14] | – | 107 | 1700 | – | – |
| Cc1cc(-c2c(F)cc3c4nn(CCNCCO)c(=O)c-4cn(C4CC4)c3c2F)cc(C)n1 [Example 17] | 3300 | – | – | 1410 | – |
| Cc1cc(-c2c(F)cc3c4nn([C@H]5CC[C@@H](N(C)C)CC5)c(=O)c-4cn(C4CC4)c3c2F)cc(C)n1 [Example 51a] | – | 63 | 1700 | – | – |
| Cc1cc(-c2c(F)cc3c4nn([C@H]5CC[C@H](N(C)C)CC5)c(=O)c-4cn(C4CC4)c3c2F)cc(C)n1 [Example 51b] | – | – | 4400 | > 390 | – |
| Cc1cc(-c2c(F)cc3c4nn([C@H]5CC[C@@H](N)CC5)c(=O)c-4cn(C4CC4)c3c2F)cc(C)n1 [Example 56a, 2-(Cis-4-Aminocyclohexyl)-5-cyclopropyl-6,8-difluoro-2,5-dihydro-7-(2,6-dimethyl-4-pyridinyl)-3H-pyrazolo-[4,3-c]quinolin-3-one] | – | 110 | 500 | – | – |
